# Source: US11066447B2, “Aureobasidium derivatives and methods of synthesis” (AureoGen Biosciences, Inc., priority 2016, dated 2021)
# Read-outs that look alike come from different tables or passages of the source. Numbered stars: 1 amine (or outer) side, 2 acyl side, 3 side chain; on linkers, the order of the positions; unused ones are H or OH. Square brackets hold non-standard residues; d marks the D form. Peptide text beside a SMILES is read from it. X35 = CN([C@@H](Cc1cccc(-c2ccc(-n3c4ccccc4c4ccccc43)cc2)c1)C(=O)[*:2])[*:1]; X25 = CN([C@@H](Cc1cccc(-c2ccc3cccnc3c2)c1)C(=O)[*:2])[*:1]; X27 = CN([C@@H](Cc1cccc(-c2cccc3ccccc23)c1)C(=O)[*:2])[*:1]; X32 = CN([C@@H](Cc1cccc(-c2cccc(F)c2)c1)C(=O)[*:2])[*:1]; Hmp(2R,3S) = CC[C@H](C)[C@@H](O)C(=O)O; NMeVal(β-OH) = CN[C@H](C(=O)O)C(C)(C)O; NMeV = CN[C@H](C(=O)O)C(C)C
# Tests used:
# [1] = tested on: C. parapsilosis MMX 2323 ATCC 22019; assay: MIC assay (CLSI microdilution); assay type: cell-based, Candida parapsilosis; conditions: read-out: MIC
# Protocol: (§1) Aureobasidin and test compounds (i.e., AbA derivatives of the present invention) were received from Kalexsyn, Inc. (Kalamazoo, Mich.) as powder and were stored at 4° C. until the day of assay. […] amphotericin was obtained from Sigma Aldrich and stored under like conditions. […] Ethanol (95%) was used as a solvent and diluent for all AbA compounds. Amphotericin B was tested from 0.06-64 μg/mL. Amphotericin B (Sigma Aldrich; St. Louis, Mo.; Cat No. A9528-100MG, Lot No. 120M4087) was dissolved and diluted with dimethylsulfoxide (DMSO; Sigma Aldrich; St. Louis, Mo.; Cat No. 472301 Lot No. SHBD2072V).
# (§2) The solvents were added to the test agents and the stock solutions stood for approximately 1 hr at room temperature prior to use to auto sterilize. Stock solutions were prepared at 40× the desired top concentration in the test plate.
# (§3) All of the test isolates were originally received from either the American Type Culture Collection (ATCC), clinical labs, or directly from Aureogen Biosciences. Organisms stored by Micromyx were cultured on agar medium appropriate to each organism. Colonies were picked by swab from the isolation plates and put into suspension in appropriate broth containing cryoprotectant. The suspensions were aliquoted into cryogenic vials and maintained at −80° C.
# (§4) Prior to testing, Candida isolates were streaked from the frozen vials on Sabouraud dextrose agar. The yeast isolates were incubated for 48 hours at 35° C. before use. The fungal isolates were obtained from enumerated fungal stocks previously prepared at Micromyx and stored in phosphate buffered saline at 4° C.
# (§5) Test Media. The medium employed for the MIC assay was RPMI-1640 medium from HyClone Laboratories (Logan, Utah; Lot No. AYB60287A). The medium was prepared according to Clinical and Laboratory Standards Institute (CLSI) guidelines (1, 2), and modified to include 0.002% Tween-80. Candida parapsilosis ATCC 22019 (MMX 2323) and Aspergillus fumigatus ATCC MYA-3626 (MMX 5280) were also tested without Tween-80 to provide data for the quality control of amphotericin B in accordance with CLSI (3) and to assess the effect of Tween-80 on the activity of the test agents.
# (§6) Test Procedure. The MIC assay method followed the procedure described by CLSI (1, 2) and employed automated liquid handlers to conduct serial dilutions and liquid transfers. Automated liquid handlers included the Multidrop 384 (Labsystems, Helsinki, Finland), Biomek 2000 and Biomek FX (Beckman Coulter, Fullerton Calif.). The wells in columns 2-12 in standard 96-well microdilution plates (Costar 3795) were filled with 150 μl of the appropriate diluent (95% EtOH for investigational compounds, 100% DMSO for amphotericin B). These assay plates would become the ‘mother plates’ from which the assay ‘daughter plates’ would be prepared. The drugs (300 μL at 40× the desired top concentration in the test plates) were dispensed into the appropriate well in Column 1 of the mother plates. The Biomek 2000 was used to make two-fold serial dilutions through Column 11 in the “mother plate”. The wells of Column 12 contained no drug and served as the organism growth control wells.
# (§7) The daughter plates were loaded with 185 μL per well on the Multidrop 384 with RPMI plus 0.002% Tween-80 or RPMI containing no Tween-80 for the testing of the two QC isolates. The daughter plates were prepared on the Biomek FX instrument which transferred 5 μL of drug solution from each well of a mother plate to each corresponding well of each daughter plate in a single step.
# (§8) A standardized inoculum of each organism was prepared per CLSI methods (1, 2). For the Candida isolates, colonies were picked from the streak plate and a suspension was prepared in RPMI to equal a 0.5 McFarland standard. This suspension was diluted 1:100 in RPMI resulting in a final concentration of approximately 0.5-2.5×10^3 CFU/mL. […]
# [2] = tested on: A. niger MMX 0624 ATCC 16888; assay: MIC/MEC assay (CLSI microdilution); assay type: cell-based; conditions: Aspergillus niger, ATCC16888, 48 h; for minimal effective concentration: RPMI plus 0.002% Tween-80, read-out: MEC; for MIC: RPMI plus 0.002% Tween-80, read-out: MIC
# Protocol: as §1, §2, §3, §4, §5, §6, §7, §8
# A. flavus MMX 5948 = assay: MIC/MEC assay (CLSI microdilution); assay type: cell-based; conditions: Aspergillus flavus, MMX5948, 48 h; for minimal effective concentration: RPMI plus 0.002% Tween-80; for MIC: RPMI plus 0.002% Tween-80, read-out: MIC
# Protocol: as §1, §2, §3, §4, §5, §6, §7, §8
# [3] = tested on: A. fumigatus MMX 6782 ATCC 13073; assay: MIC/MEC assay (CLSI microdilution); assay type: cell-based; conditions: Aspergillus fumigatus, ATCC13073, 48 h; for minimal effective concentration: RPMI plus 0.002% Tween-80, read-out: MEC; for MIC: RPMI plus 0.002% Tween-80, read-out: MIC
# Protocol: as §1, §2, §3, §4, §5, §6, §7, §8
# [4] = tested on: A. fumigatus MMX 6781 ATCC MYA-4609; assay: MIC/MEC assay (CLSI microdilution); assay type: cell-based; conditions: Aspergillus fumigatus; for MIC: 48 h, RPMI plus 0.002% Tween-80, read-out: MIC; for minimal effective concentration: RPMI plus 0.002% Tween-80, 48 hr
# Protocol: as §1, §2, §3, §4, §5, §6, §7, §8
# A. fumigatus MMX 5944 = assay: MIC/MEC assay (CLSI microdilution); assay type: cell-based; conditions: Aspergillus fumigatus, MMX5944, 48 h; for minimal effective concentration: RPMI plus 0.002% Tween-80; for MIC: RPMI plus 0.002% Tween-80, read-out: MIC
# Protocol: as §1, §2, §3, §4, §5, §6, §7, §8
# [5] = tested on: A. fumigatus MMX 5280 ATCC MYA-3626; assay: MIC/MEC assay (CLSI microdilution); assay type: cell-based, Aspergillus fumigatus; conditions: for minimal effective concentration / MIC: Aspergillus fumigatus, 48 h
# Protocol: as §1, §2, §3, §4, §5, §6, §7, §8
# [6] = tested on: C. neoformans MMX 0634 ATCC 90112; assay: MIC assay (CLSI microdilution); assay type: cell-based; conditions: Cryptococcus neoformans, ATCC90112, RPMI plus 0.002% Tween-80; read-out: MIC
# Protocol: as §1, §2, §3, §4, §5, §6, §7, §8
# [7] = tested on: C. albicans MMX 2000 ATCC 10231; assay: MIC assay (CLSI microdilution); assay type: cell-based; conditions: Candida albicans, ATCC10231, RPMI plus 0.002% Tween-80; read-out: MIC
# Protocol: as §1, §2, §3, §4, §5, §6, §7, §8
# [8] = tested on: A. fumigatus from Aureogen; assay: MIC/MEC assay (CLSI microdilution); assay type: cell-based; conditions: Aspergillus fumigatus, 48 h
# Protocol: as §1, §2, §3, §4, §5, §6, §7, §8
# [9] = ATCC22019, RPMI plus 0.002% Tween-80
# [10] = RPMI plus 0.002% Tween-80, read-out: MEC
# [11] = RPMI plus 0.002% Tween-80, read-out: MIC
# [12] = Without Tween-80, read-out: MEC
# [13] = Without Tween-80, read-out: MIC
Structure (SMILES),"MIC [1, 9]","MIC ([1]; ATCC22019, Without Tween-80)",minimal effective concentration [2],MIC [2],minimal effective concentration (A. flavus MMX 5948),MIC (A. flavus MMX 5948),minimal effective concentration [3],MIC [3],MIC [4],minimal effective concentration [4],minimal effective concentration (A. fumigatus MMX 5944),MIC (A. fumigatus MMX 5944),"minimal effective concentration [5, 10]","MIC [5, 11]","minimal effective concentration [5, 12]","MIC [5, 13]",MIC [6],MIC [7],other results
"CC[C@H](C)[C@@H]1NC(=O)[C@@H]2CCCN2C(=O)[C@H](Cc2cccc(-c3cccc(F)c3)c2)N(C)C(=O)[C@H](Cc2ccccc2)NC(=O)[C@H](C(C)C)N(C)C(=O)[C@@H]([C@@H](C)CC)OC(=O)[C@H](C(C)(C)O)N(C)C(=O)[C@H](CC(C)C)NC(=O)[C@H](C(C)C)N(C)C1=O [Compound 7] (cyclo(F[X32]PI[NMeV]L[NMeVal(β-OH)][Hmp(2R,3S)][NMeV]))",0.12 µg/mL,1 µg/mL,0.25 µg/mL,0.25 µg/mL,> 64 µg/mL,> 64 µg/mL,0.5 µg/mL,> 64 µg/mL,> 64 µg/mL,1 µg/mL,0.5 µg/mL,> 64 µg/mL,2 µg/mL,> 64 µg/mL,64 µg/mL,> 64 µg/mL,0.12 µg/mL,0.015 µg/mL,
"CC[C@H](C)[C@@H]1NC(=O)[C@@H]2CCCN2C(=O)[C@H](Cc2cccc(-c3ccc(-n4c5ccccc5c5ccccc54)cc3)c2)N(C)C(=O)[C@H](Cc2ccccc2)NC(=O)[C@H](C(C)C)N(C)C(=O)[C@@H]([C@@H](C)CC)OC(=O)[C@H](C(C)(C)O)N(C)C(=O)[C@H](CC(C)C)NC(=O)[C@H](C(C)C)N(C)C1=O [Compound 8] (cyclo(F[X35]PI[NMeV]L[NMeVal(β-OH)][Hmp(2R,3S)][NMeV]))",> 64 µg/mL,> 64 µg/mL,> 64 µg/mL,> 64 µg/mL,> 64 µg/mL,> 64 µg/mL,> 64 µg/mL,> 64 µg/mL,> 64 µg/mL,> 64 µg/mL,> 64 µg/mL,> 64 µg/mL,> 64 µg/mL,> 64 µg/mL,> 64 µg/mL,> 64 µg/mL,> 64 µg/mL,> 64 µg/mL,
"CC[C@H](C)[C@@H]1NC(=O)[C@@H]2CCCN2C(=O)[C@H](Cc2cccc(-c3cccc4ccccc34)c2)N(C)C(=O)[C@H](Cc2ccccc2)NC(=O)[C@H](C(C)C)N(C)C(=O)[C@@H]([C@@H](C)CC)OC(=O)[C@H](C(C)(C)O)N(C)C(=O)[C@H](CC(C)C)NC(=O)[C@H](C(C)C)N(C)C1=O [Compound 9] (cyclo(F[X27]PI[NMeV]L[NMeVal(β-OH)][Hmp(2R,3S)][NMeV]))",0.25 µg/mL,1 µg/mL,0.25 µg/mL,0.25 µg/mL,> 64 µg/mL,> 64 µg/mL,1 µg/mL,> 64 µg/mL,> 64 µg/mL,1 µg/mL,> 64 µg/mL,> 64 µg/mL,> 64 µg/mL,> 64 µg/mL,> 64 µg/mL,> 64 µg/mL,0.12 µg/mL,0.12 µg/mL,
"CC[C@H](C)[C@@H]1NC(=O)[C@@H]2CCCN2C(=O)[C@H](Cc2cccc(-c3ccc4cccnc4c3)c2)N(C)C(=O)[C@H](Cc2ccccc2)NC(=O)[C@H](C(C)C)N(C)C(=O)[C@@H]([C@@H](C)CC)OC(=O)[C@H](C(C)(C)O)N(C)C(=O)[C@H](CC(C)C)NC(=O)[C@H](C(C)C)N(C)C1=O [Compound 10] (cyclo(F[X25]PI[NMeV]L[NMeVal(β-OH)][Hmp(2R,3S)][NMeV]))",0.12 µg/mL,1 µg/mL,0.06 µg/mL,0.06 µg/mL,0.5 µg/mL,1 µg/mL,0.25 µg/mL,1 µg/mL,1 µg/mL,0.25 µg/mL,0.12 µg/mL,0.5 µg/mL,0.25 µg/mL,1 µg/mL,,2 µg/mL,0.12 µg/mL,0.03 µg/mL,"minimal effective concentration ([8]; RPMI plus 0.002% Tween-80): 0.25 µg/mL; MIC [8, 11]: 1 µg/mL; MEC ([5]; Without Tween-80, 48 hr): 1 µg/mL"
